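Briefly, cells in 96-well plates were exposed to five compound concentrations for 48 h, and endpoints were estimated by linear interpolation. GI50 marks 50% less growth. At the TGI there is no net growth.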
How the values were obtained:
Assay in all cases: growth of human tumour cells (NCI), 48 h; in the data active = GI50 below about 0.43 µM; inactive = the rest
[1] = system: 786-0 renal
[2] = system: A498 renal
[3] = system: A549 NSCLC
[4] = system: ACHN renal
[5] = system: BT-549 breast
[6] = system: CAKI-1 renal
[7] = system: CCRF-CEM leukemia
[8] = system: COLO 205 colon
[9] = system: DU-145 prostate
[10] = system: EKVX NSCLC
[11] = system: HCC-2998 colon
[12] = system: HCT-116 colon
[13] = system: HCT-15 colon
[14] = system: HL-60(TB) leukemia
[15] = system: HOP-62 NSCLC
[16] = system: HOP-92 NSCLC
[17] = system: HS 578T breast
[18] = system: HT29 colon
[19] = system: IGROV1 ovarian
[20] = system: K-562 leukemia
[21] = system: KM12 colon
[22] = system: LOX IMVI melanoma
[23] = system: M14 melanoma
[24] = system: MALME-3M melanoma
[25] = system: MCF7 breast
[26] = system: MDA-MB-231 breast
[27] = system: MDA-MB-435
[28] = system: MOLT-4 leukemia
[29] = system: NCI-H226 lung
[30] = system: NCI-H23 lung
[31] = system: NCI-H460 lung
[32] = system: NCI-H522 lung
[33] = system: NCI/ADR-RES ovarian
[34] = system: OVCAR-3 ovarian
[35] = system: OVCAR-4 ovarian
[36] = system: OVCAR-5 ovarian
[37] = system: OVCAR-8 ovarian
[38] = system: PC-3 prostate
[39] = system: RPMI-8226 leukemia
[40] = system: RXF 393 renal
[41] = system: SF-268 CNS
[42] = system: SF-295 CNS
[43] = system: SF-539 CNS
[44] = system: SK-MEL-2 melanoma
[45] = system: SK-MEL-28 melanoma
[46] = system: SK-MEL-5 melanoma
[47] = system: SK-OV-3 ovarian
[48] = system: SN12C renal
[49] = system: SNB-19 CNS
[50] = system: SNB-75 CNS
[51] = system: SW-620 colon
[52] = system: T-47D breast
[53] = system: TK-10 renal
[54] = system: U251 CNS
[55] = system: UACC-257 melanoma
[56] = system: UACC-62 melanoma
[57] = system: UO-31 renal

COc1ccc(C2=Nn3c(nnc3-c3ccc(F)c(Cl)c3)SC2)cc1
56.7 µM: TGI [16]
> 100 µM: TGI [1] | TGI [2] | TGI [3] | TGI [4] | TGI [5] | TGI [6] | TGI [7] | TGI [8] | TGI [9] | TGI [10] | TGI [11] | TGI [12] | TGI [13] | TGI [14] | TGI [15] | TGI [17] | TGI [18] | TGI [19] | TGI [20] | TGI [21] | TGI [22] | TGI [23] | TGI [24] | TGI [25] | TGI [26] | TGI [27] | TGI [28] | TGI [29] | TGI [30] | TGI [31] | TGI [32] | TGI [33] | TGI [34] | TGI [35] | TGI [36] | TGI [37] | TGI [38] | TGI [39] | TGI [40] | TGI [41] | TGI [42] | TGI [43] | TGI [44] | TGI [45] | TGI [46] | TGI [47] | TGI [48] | TGI [49] | TGI [50] | TGI [51] | TGI [52] | TGI [53] | TGI [54] | TGI [55] | TGI [56] | TGI [57]
inactive: GI50 [1] > 100 µM | GI50 [2] > 100 µM | GI50 [3] > 100 µM | GI50 [4] > 100 µM | GI50 [5] > 100 µM | GI50 [6] > 100 µM | GI50 [7] 57.8 µM | GI50 [8] > 100 µM | GI50 [9] > 100 µM | GI50 [10] > 100 µM | GI50 [11] > 100 µM | GI50 [12] 61.6 µM | GI50 [13] > 100 µM | GI50 [14] > 100 µM | GI50 [15] > 100 µM | GI50 [16] 18.1 µM | GI50 [17] > 100 µM | GI50 [18] > 100 µM | GI50 [19] > 100 µM | GI50 [20] > 100 µM | GI50 [21] > 100 µM | GI50 [22] > 100 µM | GI50 [23] > 100 µM | GI50 [24] > 100 µM | GI50 [25] > 100 µM | GI50 [26] 29.5 µM | GI50 [27] > 100 µM | GI50 [28] > 100 µM | GI50 [29] > 100 µM | GI50 [30] > 100 µM | GI50 [31] > 100 µM | GI50 [32] > 100 µM | GI50 [33] > 100 µM | GI50 [34] > 100 µM | GI50 [35] > 100 µM | GI50 [36] 84.6 µM | GI50 [37] > 100 µM | GI50 [38] > 100 µM | GI50 [39] > 100 µM | GI50 [40] > 100 µM | GI50 [41] > 100 µM | GI50 [42] > 100 µM | GI50 [43] > 100 µM | GI50 [44] > 100 µM | GI50 [45] > 100 µM | GI50 [46] > 100 µM | GI50 [47] > 100 µM | GI50 [48] 5.53 µM | GI50 [49] > 100 µM | GI50 [50] 63.3 µM | GI50 [51] > 100 µM | GI50 [52] > 100 µM | GI50 [53] > 100 µM | GI50 [54] > 100 µM | GI50 [55] > 100 µM | GI50 [56] > 100 µM | GI50 [57] > 100 µM

Reference: PubChem BioAssay (NCI)
